Series [1] is described as follows: Acute toxicity testing, intravenous administration. It counts as in vivo. Conditions: male Crj:CD1 mice, via tail vein, observed up to 7 days; for MTD at 168 h: mouse, in vivo, iv, read-out: Maximum Tolerated Dose (mg/kg, intravenous administration). As for the experimental part:
The following explanation is made of testing methods for properties of the compounds of the present invention. (A) Testing of acute toxicity Acute toxicity of the inventive compounds was determined employing mice by intravenous administration. Male Crj:CD1 mice were used and divided into groups of 4 mice, with an average weight of each group of 31-32 g. […] Up to 7 days after administration, observations were made.

The test system of the next series is Amyloid β-protein. The experiment in a line: Screening of the degree of β-structure recognition (fluorescence, in the presence of Congo red). Type of series: binding. Conditions: test compound 5 µM, amyloid β-protein 5 µM, Congo red 0.1 µM, phosphate buffer pH 7.4.
A short description of series [2]: Blood-brain barrier permeability after intravenous administration. The following applies: for Plasma: mice, content in plasma two minutes after intravenous administration; for tissue uptake at 2 min: mouse, brain, iv.
Description: (§1) (B) Testing of blood-brain barrier permeability Measurements of blood-brain barrier permeability were made according to the following procedures. Compounds of the present invention were intravenously administered to mice to determine their in vivo blood-brain barrier permeability. • (1) Mice utilized Slc:ICR weighing 30-40 g (7 weeks old, n=3) (Nippon SLC). • (2) A test compound was dissolved in a mixture of 1N HCl, polyethylene glycol 400, and DMSO, or in DMSO or ethyl alcohol, and then diluted with purified water, and injected via tail vein. Two minutes after administration, the mice, under ether anesthesia, were subjected to taking blood from the abdominal aorta with a heparin-treated syringe and removing the brain. • (3) After taking blood, blood samples were centrifuged at 14,000 rpm at 4°C for 10 minutes, and their supernatants were kept at -80°C as plasma sample. The brain (including cerebellum) was kept at -80°C after its removal. • (4) The plasma sample, when used, was thawed, diluted with purified water, and then applied to a conditioned C18 solid-phase extraction cartridge (bond elute C18, 200 mg, Varian), followed by elution with methyl alcohol. Alternatively, after thawing the plasma sample, a diethyl ether/cyclohexane mixture was added, and the mixture was shaken, and then centrifuged to separate an oil layer. • (5) The brain material, when used, was subjected to measuring its wet weight with the brain remaining frozen, and saline was added to the brain for homogenization. The homogenate was centrifuged for 10 minutes, and the supernatant was applied to a conditioned C18 solid-phase extraction cartridge and eluted with methyl alcohol. Alternatively, after measuring the wet weight of the frozen brain, a diethyl ether/cyclohexane mixture was added to the brain, and the mixture was homogenized, shaken, and then centrifuged to separate an oil layer. • (6) The absorbance and fluorescence were detected employing high performance liquid chromatography. • (7) For each of the plasma and brain, the content of the test compound in the plasma or brain (%ID (injected dose)/ml or g) was determined, relative to the administered dose.
For a further series, the target named is T1, senile plaques (Homo sapiens, UniProt P05067).
T1 construct: The former has, as the main component, amyloid β-protein (Aβ protein) taking β-sheet structures; from tissue; host or cells: paraffin-embedded temporal lobe or hippocampus sections of an Alzheimer's disease patient's brain (Fukushimura Hospital)
The experiment in a line: Staining of senile plaques and diffuse plaques in brain sections, compared with thioflavin S, BSB or anti-Aβ antibody 6F/3D immunostaining. It counts as binding, patient with Alzheimer's disease. The following applies: 100 µM compound in 50% ethanol; for staining properties compared with immunostaining of anti-Aβ antibody 6F/3D: adjacent sections immunostained with 6F/3D; for staining properties in sections of the brain of a patient with Alzheimer's disease: compared with thioflavin S (and BSB) on adjacent sections. The source says: The following explanation is made about testing of staining properties of the compounds of the present invention on brain sections of an Alzheimer's disease patient. • (1) Temporal lobe or hippocampus specimens of the brain of a patient who had been definitely diagnosed pathologically as Alzheimer's disease and of a normal aged individual were used. These specimens were provided from Fukushimura Hospital, our joint research facility, with the consent to their use for research purpose received from the bereaved family of the patient (BF Research Laboratories Institutional Ethics Board Permission No. RS-99-02). • (2) The brain tissues embedded in paraffin were sliced 6 or 8 µm thick, extended on slides, and dried. The paraffin-embedded brain sections were deparaffined by washing sequentially with xylene (10 minutes, twice), 100% ethanol (15 minutes, twice), 95% ethanol (15 minutes, twice), and a stream of water (10 minutes). • (3) Pre-treatment for staining with compounds of the present invention involved treating the sections for eliminating self-fluorescence due to lipofuscin. First, the deparaffined sections were immersed into a 10% formalin solution for 60 minutes and washed with PBS for 5 minutes, followed by immersion into a 0.25% solution of KMnO4 for 90 minutes. After washing twice with PBS for 2 minutes each, the sections were immersed into a solution of 0.1% K2S2O5/oxalic acid for about 30 seconds each, and then washed three times with PBS for 2 minutes each. • (4) About 150 µl of a 100 µM solution of a compound of the present invention dissolved in 50% ethanol was added dropwise onto the sections and allowed the reaction to be carried out for 10 minutes. The sections were dipped into tap water five times, and then 50% ethanol three to five times, followed by immediate classification. After that, the sections were immersed into PBS for 60 minutes, enclosed with Fluor Save Reagent (Calbiochem), and examined under a fluorescent microscope (Nikon, Eclips E800). Pictures were taken using a digital camera (Plaroid PDMCII).
Immunostaining was carried out as follows. • (a) Procedures for immunostaining amyloid β-protein: • (1) After the sections were deparaffined, the sections were washed twice in distilled water for 2 minutes each, and tissues were marked with an Immunopen. About 150 µl of formic acid was added dropwise and allowed to stand at room temperature for 5 minutes. The sections were washed with tap water for 5 minutes and immersed into cold PBS-Tween 20 for 2 minutes, and then about 150 µl of a 0.05% trypsin solution was added dropwise and allowed the reaction to be carried out at 37°C for 15 minutes. • (2) In an ice bath, the sections were washed twice with cold PBS-Tween 20 for 5 minutes each, and two drops of blocking serum were added and allowed the reaction to be carried out at 37°C for 15 minutes. Excess water was removed, and about 150 µl of 6F/3D, an antibody specific to amyloid β-protein (DAKO; diluted 1:50) was added dropwise and allowed the reaction to be carried out at 37°C for 1 hour. • (3) Further, after washing five times with cold PBS-Tween 20 for 2 minutes each, two drops of a solution of goat antimouse IgG (H+L) conjugated to biotin were added and allowed the reaction to be carried out at 37°C for 1 hour. After that, the sections were washed three times with cold PBS-Tween 20 for 2 minutes each, and two drops of ABS solution (a streptavidin-biotin-peroxidase complex solution) were added and allowed to stand for 30 minutes. The sections were again washed three times with cold PBS-Tween 20 for 2 minutes each, and about 150 µl of DAB solution (prepared by dissolving 10 mg of DAB in 20 ml of 0.05 mol/l Tris-HCl buffer and adding 100 µl of 3% hydrogen peroxide immediately before use) were added and allowed the color to be developed sufficiently. Then, the sections were washed with distilled water for 1 minute to stop the reaction, enclosed, and examined under a microscope.

For series [3] the following is noted: mouse, in vivo, iv, 2 min.
Description: as §1

Where two headings read alike, the source gives them in different places.

T1 sequence (P05067 672-713 limits assumed): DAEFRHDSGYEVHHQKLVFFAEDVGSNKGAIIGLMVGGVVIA

As for `CN(C)c1ncc(/C=C/c2nc3ccccc3o2)s1` [BF-197, 2-[2-(2-dimethylaminothiazol-5-yl)ethenyl]benzoxazole], the MTD at 168 h in series [1] is at least 10 mg/kg. The “Degree of β-structure recognition (%)” value in the series on Amyloid β-protein is 71.8%. In addition, in series [2], the Plasma is given as 1.9 %ID/g or ml and the tissue uptake (as a rule, the percentage of the injected dose found per gram of tissue) at 2 min came to 15 %ID/g. On senile plaques, the “staining properties compared with immunostaining of anti-Aβ antibody 6F/3D” value is given as “stains senile plaques” and the “staining properties in sections of the brain of a patient with Alzheimer's disease” value (from here on “staining properties in sections”) is “mainly stains senile plaques”.

With `Cc1nc(/C=C/c2cnc(N(C)C)s2)oc1C` [BF-214, 2-(dimethylamino)-5-[2-(4,5-dimethyloxazol-2-yl)ethenyl]thiazole], the MTD at 168 h in series [1] was at least 10 mg/kg. The “Degree of β-structure recognition (%)” value with Amyloid β-protein is listed as 58.9%. Further, in series [2], the Plasma was 2.1 %ID/g or ml and the tissue uptake at 2 min came to 8.8 %ID/g. Also, the “staining properties in sections” value at senile plaques was “stains senile plaques”.

With `CN(C)c1ncc(/C=C/c2ccc3ccccc3n2)s1` [BF-222, 2-[2-(2-dimethylaminothiazol-5-yl)ethenyl]quinoline], in series [1], the MTD at 168 h is at least 10 mg/kg. Besides, the “Degree of β-structure recognition (%)” value in the series on Amyloid β-protein was 62.3%. Besides, in series [2], the Plasma is listed as 2.0 %ID/g or ml and the tissue uptake at 2 min was determined as 13 %ID/g.

In the case of `CNc1ccc(/C=C/C=C/C=C/c2ccc3ccccc3n2)cc1` [BF-189, 1-(4-methylaminophenyl)-6-(2-quinolyl)-1,3,5-hexatrien], in series [1], the MTD at 168 h was at least 10 mg/kg. In addition, the “Degree of β-structure recognition (%)” value in the series on Amyloid β-protein is 79.8%. At senile plaques, the “staining properties in sections” value was “stains senile plaques”.

As to “2-[2-(5-dimethylaminothiazol-2-yl)ethenyl]benzoxazole [BF-215]”, the “Maximum Tolerated Dose (mg/kg, intravenous administration)” value in series [1] is reported as “≧ 10 mg/kg”. Besides, the “Degree of β-structure recognition (%)” value in the series on Amyloid β-protein came to 82.6%. Besides, the “staining properties in sections” value at senile plaques was “stains senile plaques”. Further, in series [3], the Brain is reported as 8.8 %ID/g or ml and the Plasma is listed as 2.5 %ID/g or ml.

For the compound `CN(C)c1ncc(/C=C/c2nc3ccc(OCCF)cc3o2)s1` [BF-227, 2-[2-(2-dimethylaminothiazol-5-yl)ethenyl]-6-(2-fluoroethyloxy)benzoxazole], in series [1], the MTD at 168 h was at least 10 mg/kg. In the series on Amyloid β-protein, the “Degree of β-structure recognition (%)” value is 70.2%. Moreover, in series [2], the Plasma is reported as 2.1 %ID/g or ml and the tissue uptake at 2 min came to 7.9 %ID/g. Further, on senile plaques, the “staining properties compared with immunostaining of anti-Aβ antibody 6F/3D” value was “stains senile plaques (Fig. 16, wedge-shaped arrowheads) and diffuse plaques”; the “staining properties in sections” value is “mainly stains senile plaques”.

These data come from patent EP1655287A1, “PROBE FOR DISEASES WITH AMYLOID ACCUMULATION, AMYLOID-STAINING AGENT, REMEDY AND PREVENTIVE FOR DISEASES WITH AMYLOID ACCUMULATION AND DIAGNOSTIC PROBE AND STAINING AGENT FOR NEUROFIBRILLARY CHANGE” (priority 2003, dated 2005).
